Reference: PubChem BioAssay (NCI)
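Five compound concentrations were applied to cells in 96-well plates for 48 hours; endpoints were derived by simple linear interpolation of the resulting dose-response curve. GI50 = concentration required for 50% inhibition of growth. TGI: total growth inhibition.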

How the values were obtained:
Test in all cases: NCI anticancer screen, dose series, 48 h
SF-539 CNS = tested on: SF-539 CNS
HL-60(TB) leukemia = tested on: HL-60(TB) leukemia
SN12C renal = tested on: SN12C renal
DMS 273 small cell lung = tested on: DMS 273 small cell lung
HCC-2998 colon = tested on: HCC-2998 colon
KM12 colon = tested on: KM12 colon
COLO 205 colon = tested on: COLO 205 colon
SK-OV-3 ovarian = tested on: SK-OV-3 ovarian
RXF 393 renal = tested on: RXF 393 renal
SNB-78 CNS = tested on: SNB-78 CNS

| Compound | TGI (SF-539 CNS) [µM] | TGI (HL-60(TB) leukemia) [µM] | TGI (SN12C renal) [µM] | TGI (DMS 273 small cell lung) [µM] | TGI (HCC-2998 colon) [µM] | TGI (KM12 colon) [µM] | TGI (COLO 205 colon) [µM] | TGI (SK-OV-3 ovarian) [µM] | TGI (RXF 393 renal) [µM] | TGI (SNB-78 CNS) [µM] | GI50 (SF-539 CNS) [µM] | GI50 (HL-60(TB) leukemia) [µM] | GI50 (SN12C renal) [µM] | GI50 (HCC-2998 colon) [µM] | GI50 (KM12 colon) [µM] | GI50 (COLO 205 colon) [µM] | GI50 (SK-OV-3 ovarian) [µM] | GI50 (RXF 393 renal) [µM] |
| --- | --- | --- | --- | --- | --- | --- | --- | --- | --- | --- | --- | --- | --- | --- | --- | --- | --- | --- |
| CCOP(=O)(CC(=O)C1=C(O)C(CCCCNC(=O)OC(C)(C)C)N(Cc2ccccc2)C1=O)OCC (centres undefined) | > 100 | > 100 | > 100 | > 100 | > 100 | > 100 | > 100 | > 100 | > 100 | – | – | – | – | – | – | – | – | – |
| Clc1ccc(C2=NOC3C4CCC(C4)C23)cc1 (centres undefined) | > 100 | > 100 | > 100 | > 100 | > 100 | > 100 | > 100 | > 100 | – | > 100 | – | – | – | – | – | – | – | – |
| Cn1c2ccccc2c2nnc(NNCc3ccccn3)nc21 | 3.38 | 3.13 | 14.6 | – | 12.7 | 14.2 | 11.4 | 7.22 | 3.36 | – | 0.393 | 0.318 | 0.462 | 0.321 | 0.478 | 0.476 | 0.387 | 0.407 |
| Cc1ccc(C)c2c(N=Nc3ccccc3[N+](=O)[O-])c(O)[nH]c12 | > 100 | > 100 | > 100 | – | > 100 | > 100 | > 100 | > 100 | > 100 | – | – | – | – | – | – | – | – | – |
| C[C@]12CC[C@@H]3c4ccc(O)cc4CC[C@H]3[C@@H]1CC[C@@H]2NS(=O)(=O)c1ccc2ccccc2c1 | 6.1 | 13.7 | 4.25 | – | 15.5 | 4.06 | 3.37 | 36.4 | 4.33 | – | 2.11 | 3.31 | 1.94 | 4.24 | 1.92 | 1.94 | 5.79 | 1.84 |
| CNC(=O)c1cc2c(Oc3ccc(NC(=S)NC(=O)Cc4ccccc4)cc3F)ccnc2cc1OC | > 30.3 | > 100 | > 100 | – | > 100 | > 100 | > 100 | > 100 | 6.55 | – | 0.549 | > 100 | 2.18 | > 100 | 3.91 | 5.37 | 5.24 | 2.02 |
| CC(C)(C)OC(=O)NCCCCCCCCCCn1c2c(c3ccccc3c1=O)C(=O)c1ccccc1-2 | > 100 | > 100 | > 100 | – | > 100 | > 100 | > 100 | > 100 | 37.4 | – | 43.1 | 32.6 | > 100 | > 100 | > 100 | > 100 | 40.3 | 13 |
| Nc1cc2nc3ccccc3oc-2cc1=O | 6.75 | > 100 | 2.9 | – | 17.4 | 43.5 | 3.42 | > 61.4 | 14.2 | – | 2.45 | 3.19 | 1.46 | 4.34 | 3.71 | 1.82 | 19.7 | 5.07 |
| C#C/C=C/CC1OC(C(Br)CC)CC(Br)C2CC1O2 (centres undefined) | > 100 | > 100 | > 100 | – | > 100 | > 100 | > 100 | > 100 | > 100 | – | – | – | – | – | – | – | – | – |
| N#C/C(=C\c1cccc2cnccc12)N1N=NC2C=CC=CC21 (centres undefined) | 9.23 | 24.3 | > 100 | – | > 100 | 32 | > 100 | 25.9 | 6.97 | – | 2.65 | 3 | 3.24 | 4.32 | 2.96 | 3.48 | 2.08 | 2.35 |
| CC1(C)CC(=O)c2c(ccc(C(=O)C[C@@H](N)CO)c2N)O1 | 5.22 | > 63.7 | > 100 | – | 4.63 | > 91.7 | > 37.3 | > 100 | 7.44 | – | 0.399 | 4.03 | 0.788 | 0.371 | 0.297 | 1.05 | 7.32 | 1.45 |
| COc1cc(C2C3=C(COC3=O)Nc3cc4c(cc32)OCO4)cc2c1OCO2 (centres undefined) | > 64.5 | – | > 100 | – | – | 1.92 | 0.172 | – | > 100 | – | 0.0394 | 0.059 | 0.154 | 0.109 | 0.0355 | 0.0735 | 0.0706 | 0.0304 |
| Brc1ccc(C2SCc3nc4ccccc4n32)cc1 (centres undefined) | 34.3 | 12.4 | 27.7 | – | – | 21.1 | 27.3 | 37.7 | 20.9 | 22.5 | – | – | – | – | – | – | – | – |
| CN(C)c1ccc(/C=N/NC(=O)c2cccc3ccccc23)c(Cl)c1 | 26.1 | 3.64 | > 100 | – | > 100 | > 100 | > 100 | 25.2 | 10.8 | – | 1.73 | 0.46 | 8.85 | 38.5 | 1.01 | 2.88 | 1.67 | 1.31 |
| FC(F)(F)c1[nH]ncc1-c1nc2ccc3[nH]ncc3c2c2c1CCCC2 | 2.83 | 6.22 | 5.6 | – | 3.89 | 11.8 | 4.08 | 5.83 | 2.35 | – | 1.2 | 2.09 | 1.53 | 1.58 | 1.19 | 1.54 | 1.79 | 1.13 |
| O=C1CCC2(c3ccccc3)Nc3ccc(Cl)cc3N12 (centres undefined) | > 100 | > 100 | > 100 | – | > 100 | > 100 | > 100 | > 100 | > 100 | > 100 | – | – | – | – | – | – | – | – |
| CCOC(=O)c1nc2cc(C(F)(F)F)ccc2[n+]([O-])c1C | > 100 | > 100 | > 100 | – | > 100 | > 100 | > 100 | > 100 | > 100 | – | > 100 | > 100 | > 100 | > 100 | > 100 | > 100 | > 100 | 33.9 |
